Consider one molecule from patent US20100286139A1, “AMINO PYRAZOLE COMPOUND” (ELI LILLY AND COMPANY, priority 2008, published 2010).

The experiment deals with T1, JAK2 (Homo sapiens, UniProt O60674).
T1 construct: endogenous in cells; host or cells: TF-1 (human erythroid leukemia) cells, EPO-stimulated
Nature of the experiment: JAK2 EPO-TF1/pSTAT5 cell-based assay (Cellomics ArrayScan HCS). Particulars: TF-1 cells, EPO 1.6 U/mL stimulated, n=4; read-out: relative IC50, inhibition of pSTAT5. The text has this:
JAK2 EPO-TF1/pSTAT5 cell-based assay mimics the constitutive activation of JAK2-STAT5 in erythroid progenitor cells, which drives the overproduction of red blood cells, a marker of polycythemia vera (PV).
TF-1 (human erythroid leukemia) cells are maintained in RPMI 1640 (RPMI-1640 was developed by Moore et. al. at Roswell Park Memorial Institute. The formulation is based on the RPMI-1630 series of media utilizing a bicarbonate buffering system and alterations in the amounts of amino acids and vitamins.) with 10% fetal bovine serum (FBS), 0.075% sodium bicarbonate, 1 mM sodium pyruvate, 1× antibiotic/antimycotic (Invitrogen, Carlsbad, Calif.) and 0.45% glucose. The medium is supplemented with GM-CSF (granulocyte-macrophage colony-stimulating factor) at a final concentration of 2 ng/mL. Cells are kept at 37° C. with 5% CO2. Cells are starved in serum free medium to remove endogenous growth factors. TF-1 cells are counted and cells are collected to seed 2×10^7 cells per 96-well plate at a density of 2×10^5 cells per well. […]
To perform the assay, serum-starved cells are collected and washed once with unsupplemented RPMI 1640 medium. […] An aliquot of 200 μL of 1 to 10 dilution of Mouse anti-pSTAT5 (pY694) Alexa Fluor 647® in fluorescence activated cell sorting (FACS) buffer is added to the cells. […]

Usually pIC50 stands for the IC50 on a negative log10 scale, so that one unit is a factor of ten.

pIC50: −log10 of the molar value.

T1 sequence (O60674 whole entry): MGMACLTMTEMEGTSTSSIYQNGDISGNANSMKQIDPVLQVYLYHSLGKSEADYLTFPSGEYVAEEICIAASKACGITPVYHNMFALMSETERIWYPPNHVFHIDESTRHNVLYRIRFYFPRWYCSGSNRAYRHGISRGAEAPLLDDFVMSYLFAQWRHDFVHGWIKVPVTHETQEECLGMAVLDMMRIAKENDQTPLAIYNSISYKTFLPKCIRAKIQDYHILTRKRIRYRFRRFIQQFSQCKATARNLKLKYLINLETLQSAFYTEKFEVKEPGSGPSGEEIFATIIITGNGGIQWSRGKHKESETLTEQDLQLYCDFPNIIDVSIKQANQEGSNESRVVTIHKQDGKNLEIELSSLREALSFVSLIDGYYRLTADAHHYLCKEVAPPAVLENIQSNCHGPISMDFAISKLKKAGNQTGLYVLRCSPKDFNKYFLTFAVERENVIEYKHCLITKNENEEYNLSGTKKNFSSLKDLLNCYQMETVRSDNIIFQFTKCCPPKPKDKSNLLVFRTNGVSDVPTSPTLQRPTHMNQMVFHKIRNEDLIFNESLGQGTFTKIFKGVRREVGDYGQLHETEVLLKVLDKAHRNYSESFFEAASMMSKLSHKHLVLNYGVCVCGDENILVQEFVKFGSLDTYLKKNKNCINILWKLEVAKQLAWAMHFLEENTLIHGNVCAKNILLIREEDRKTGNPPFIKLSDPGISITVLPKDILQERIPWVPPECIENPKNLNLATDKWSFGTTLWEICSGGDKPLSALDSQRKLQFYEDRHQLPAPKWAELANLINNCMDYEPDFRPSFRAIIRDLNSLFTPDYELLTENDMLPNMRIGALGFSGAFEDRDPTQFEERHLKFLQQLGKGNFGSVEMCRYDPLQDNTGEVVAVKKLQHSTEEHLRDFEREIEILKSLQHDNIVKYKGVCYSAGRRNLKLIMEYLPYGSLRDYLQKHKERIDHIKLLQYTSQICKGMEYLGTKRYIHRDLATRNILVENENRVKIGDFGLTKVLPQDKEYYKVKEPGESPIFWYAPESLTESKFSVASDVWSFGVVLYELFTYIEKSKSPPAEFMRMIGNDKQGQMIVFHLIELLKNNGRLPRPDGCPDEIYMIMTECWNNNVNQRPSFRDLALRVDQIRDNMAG

For `Cc1cc(Nc2cc(CN3CCOCC3)c3nc(C)c(Cc4ccc(Cl)cc4F)n3n2)n[nH]1` [3-(4-Chloro-2-fluorobenzyl)-2-methyl-N-(5-methyl-1H-pyrazol-3-yl)-8-(morpholinomethyl)imidazo[1,2-b]pyridazin-6-amine], the pIC50 is 7.48.
